Assay results from patent publication US20080287406A1, “Compositions and methods for treating medical conditions” (priority 2007, published 2008).
Where two headings read alike, the source gives them in different places.

Columns and labels:
CRP = CRP measurements in 14 week blinded, randomized study; type: in vivo, human; details: 3 mg Prednisolone + Placebo, N = 69, ITT (LOCF)
Method: CRP is an acute phase response protein whose production is stimulated by cytokines, particularly interleukin-6 (IL-6). The relationship between inflammatory processes and elevation in plasma CRP and pro-inflammatory cytokines is well known. Typically a serum CRP level of >3 mg/L is considered elevated. Serum CRP levels can be measured by standard techniques known in the art, e.g., ELISA assays (Kamiya Biomedical Co., Seattle, Wash.).
We conducted a 14 week blinded, randomized study including a split dose corticosteroid therapy or placebo, with regular CRP and inflammatory cytokine measurements. The study population had active rheumatoid arthritis.
(§1) Screening Visit • Day 1 (Baseline Visit)—Start of Run-In Period • Day 14 (±2 days)—End of Run-In Period/Start of Treatment Period • Day 42 (±2 days) • Day 70 (±2 days)—End of Treatment Period/Start of Withdrawal Period • Day 98 (±2 days)—End of Study
The powered study ended after these first 10 weeks. […] A schematic of the study design is shown below.

[1] = test system: active rheumatoid arthritis; details: 3 mg Prednisolone + Placebo, N = 69, ITT (LOCF)
Excerpt: A visual analog scale (VAS) provides a measure of a one-dimensional quantity. A VAS generally utilizes a representation of distance, such as a picture of a line with hash marks drawn at regular distance intervals, e.g., ten 1-cm intervals. […] This procedure provides a simple and rapid approach to obtaining quantitative information about how the patient is experiencing pain. VAS scales can also be used, e.g., to measure fatigue. VAS scales and their use are described, e.g., in U.S. Pat. Nos. 6,709,406 and 6,432,937.
We conducted a 14 week blinded, randomized study including a split dose corticosteroid therapy or placebo, with regular CRP and inflammatory cytokine measurements. The study population had active rheumatoid arthritis. The subject must otherwise have been in good general health.
as §1
All eligible subjects received DMARD therapy in a stable dose. Subjects were evaluated for study eligibility at the Screening visit, which was conducted within 14 days before the first dose of study drug. The subject provided written informed consent to participate in the study before any Screening laboratory samples were collected or evaluations performed.
All subjects were given 3 mg prednisolone alone for 2 weeks (Run-In Period). Subjects were then randomized into treatment groups to additionally receive 10 mg paroxetine, 20 mg paroxetine or placebo tablets for 8 weeks (Combination Treatment Period). The powered study ended after these first 10 weeks. All subjects continued in an un-powered part of the study for an additional 4 weeks (Withdrawal Period). In this portion of the study, half of the subjects on 10 mg or 20 mg paroxetine plus 3 mg prednisolone stopped taking paroxetine, and instead took 3 mg prednisolone plus placebo, while the other half stopped taking prednisolone, and instead took either dose of paroxetine plus placebo. Similarly, half of the subjects on prednisolone plus placebo stopped the prednisolone, and instead took two placebo tablets, while the other half continued the regimen of 3 mg prednisolone plus placebo. A schematic of the study design is shown below.

C[C@]12C=CC(=O)C=C1CC[C@@H]1[C@@H]2[C@@H](O)C[C@@]2(C)[C@H]1CC[C@]2(O)C(=O)CO [Prednisolone, prednisolone]
CRP % Change from baseline, Mean (CRP; Day 14): 7.11% | CRP Change from baseline, Mean (CRP; Day 14): −7.40 | CRP Value, Mean (CRP; Day 14): 11.42 | CRP % Change from baseline, Mean (CRP; Day 42): −17.67% | CRP Change from baseline, Mean (CRP; Day 42): −8.61 | CRP Value, Mean (CRP; Day 42): 10.22 | CRP % Change from baseline, Mean (CRP; Day 70): −13.66% | CRP Change from baseline, Mean (CRP; Day 70): −8.95 | CRP Value, Mean (CRP; Day 70): 9.88 | Patient Pain Assessment (VAS) Score % Change from baseline, Mean ([1]; Day 14): −13.65% | Patient Pain Assessment (VAS) Score Change from baseline, Mean ([1]; Day 14): −7.73 | Patient Pain Assessment (VAS) Score Value, Mean ([1]; Day 14): 45.58 | Patient Pain Assessment (VAS) Score % Change from baseline, Mean ([1]; Day 42): −19.23% | Patient Pain Assessment (VAS) Score Change from baseline, Mean ([1]; Day 42): −10.57 | Patient Pain Assessment (VAS) Score Value, Mean ([1]; Day 42): 42.74 | Patient Pain Assessment (VAS) Score % Change from baseline, Mean ([1]; Day 70): −17.84% | Patient Pain Assessment (VAS) Score Change from baseline, Mean ([1]; Day 70): −12.28 | Patient Pain Assessment (VAS) Score Value, Mean ([1]; Day 70): 41.04
